Two compounds from EPA's ToxValDB 9.5 (doi:10.2903/j.efsa.2007.121r) can be followed below.

One data set relates to Aphidius rhopalosiphi. Description: LR50; higher = less toxic. The following applies: not reported; mortality.
For a further data set, the system named is Lepomis macrochirus. As to conditions: acute; duration: 96 hours; mortality.
Another data set relates to Tagia sp. As to conditions: acute; duration: 14 days; mortality.
A further data set has as its system Canidae. The following applies: chronic; duration: 2 years; oral; diet; Dog Other; body weight.
The test system of a further data set is Oncorhynchus mykiss. As to conditions: chronic/long-term; duration: 91 days; mortality.
The next data set deals with Daphnia magna. As to conditions: chronic/long-term; duration: 21 days; reproduction.
The test system of a further data set is Coturnix coturnix. As to conditions: acute; oral; mortality.
Another data set has as its system Apis mellifera. As to conditions: acute; duration: 48 hours; oral; unspecified; mortality.
The test system of the next data set is Bibionidae. As to conditions: chronic/long-term; duration: 28 days.
The mark [1] stands for this setting: reproduction developmental, organ weight.

Converted amounts (≈) assume the structure as drawn.

For `CCOC(=O)[C@@H](C)Oc1ccc(Oc2nc3ccc(Cl)cc3o2)cc1` [Fenoxaprop-P-ethyl], the LR50 in the data set on Aphidius rhopalosiphi was 46.4 g/ha. Further, the LC50 with Lepomis macrochirus was 0.19 µg/mL (≈ 0.525 µM); in the data set with Tagia sp. it was > 1000 mg/kg. The NOAEL (as a rule, the highest tested level that showed no adverse finding) is 1 mg/kg-day in the data set on Canidae; 10 mg/kg-day with Rattus norvegicus (developmental, development); 1.4 mg/kg-day in the data set on Rattus norvegicus (setting [1]). Also, the NOEC worked out at 0.036 mg/L in the data set on Oncorhynchus mykiss, 0.22 mg/L in the data set with Daphnia magna and 0.2 mg/L in the data set on Bibionidae. Also, the LD50 in the data set with Coturnix coturnix is 2000 mg/kg-day; with Apis mellifera, > 199 µg/piece; in the data set with Rattus norvegicus (acute, oral, mortality), > 3150 mg/kg-day.

On to `CCOC(=O)C(C)Oc1ccc(Oc2nc3ccc(Cl)cc3o2)cc1` (stereo not given) [Fenoxaprop-ethyl], for which the NOAEL with Canidae worked out at 1 mg/kg-day; in the data set on Rattus norvegicus (developmental, development), 10 mg/kg-day; with Rattus norvegicus (setting [1]), 1.4 mg/kg-day.
